According to US11274100B2, “EP300/CREBBP inhibitor” (Daiichi Sankyo Company, Limited, priority 2017, dated 2022):

Tests used:
[1] = molecular target: EP300 (Homo sapiens, UniProt Q09472); experiment: Histone acetyltransferase inhibitory activity against EP300 (Test Example 1); format: biochemical; details: 50 ng/mL EP300, 2 μM Acetyl-CoA, 100 nM Histone H4(1-25)-GSGSK (Biotin), 28° C. for 1 hour
Method: (§1) [Test Example 1] Evaluation of Histone
(§2) Acetyltransferase Inhibitory Activity against EP300 and CREBBP
(§3) 10 μL each of reaction solutions each containing a different concentration of the compound of each of Examples 1 to 108b (50 mM Tris-HCl (pH8.0), 0.1 mM EDTA, 1 mM dithiothreitol, 0.01% Tween-20, 0.01% Bovine serum albumin, 330 nM trichostatin A, 2 μM Acetyl-CoA (Sigma-Aldrich, #A2056), 100 nM Histone H4(1-25)-GSGSK (Biotin) (Anaspec, #65242-1), 1% dimethyl sulfoxide, 10 to 0.0006 μM of each compound, 50 ng/mL EP300 or 125 ng/mL CREBBP) was added to respective wells of a 384-well plate, and cultured at 28° C. for 1 hour. Thereafter, 5 μL of 30 μM Lys-CoA (Daiichi Sankyo Co., Ltd.) dissolved in LANCE detection buffer (Perkin Elmer Co., Ltd., #CR97-100) was added to each well. Furthermore, 5 μL of LANCE detection buffer containing 2 nM Eu-anti pan-Ac (Perkin Elmer Co., Ltd., #TRF0412) and 50 nM Sta-Ulight (Perkin Elmer Co., Ltd., #TRF0102) was added to each well, and the resultant was cultured at room temperature overnight. EnVision (Perkin Elmer Co., Ltd., Model 2104-0020) was used to measure ULight signals. […] EP300 and CREBBP were produced and purified by Daiichi Sankyo RD Novare Co., Ltd.

[2] = test system: TE-8 cells; experiment: Cell growth inhibitory activity, TE-8 cells (Test Example 3); format: cell-based; details: Homo sapiens, 72 h, cultured for 3 days, CellTiter-Glo
Method: (§4) [Test Example 3] Evaluation of Cell Growth Inhibitory Activity
(§5) As a culture medium for each cell, a 10% FBS supplemented RPMI 1640 medium (for LK2 cells and TE-8 cells derived from human esophageal cancer) was used. LK2 cells were purchased from Human Science Research Resources Bank, and TE-8 cells were purchased from Riken Cell Bank. The compound of each of Examples 1 to 108b was prepared by dilution with Freedom EVO 150 (Tecan Trading AG) (4-fold diluted, 10 stages, 10 mM to 38 nM). The resultant was added to respective wells of a 384-well plate in an amount of 40 nL/well using Echo 555 (Labcyte Inc.). The LK2 or TE-8 cells were seeded in the plate at 400 cells/40 μL/well (day 0), and were cultured for 3 days. On the day of addition of the compound (day 0) and 3 days after the addition of the compound (day 3), an ATP measurement reagent of CellTiter-Glo (registered trademark) 2.0 Assay (Promega Corporation, #G9242) was added to each well in an amount of 10 μL/well, and the amount of luminescence of each well was measured using EnVision. Based on the amount of luminescence (C0) on the day of the addition of the compound, and the amounts of luminescence of a compound non-addition group (C3) and a compound addition group (T3) obtained after the 3-day culture of the compound, a cell survival rate was calculated in accordance with the following expression: Cell survival rate (%)=(T3−C0)/(C3−C0)×100
(§6) A concentration (GI50 value) of each compound at which the growth of the TE-8 or LK-2 cells was inhibited by 50% was calculated by semilogarithmically plotting the cell survival rate at each concentration and the compound concentration.

[3] = test system: H3K27Ac; experiment: Intracellular H3K27Ac inhibitory activity in LK2 cells (Test Example 2); format: cell-based; details: Homo sapiens, LK-2, cultured with compound for 3 hours, read-out: Test Example 2 H3K27Ac Inhibition (LK2) IC50
Method: [Test Example 2] Evaluation of Intracellular H3K27Ac Inhibitory Activity
LK2 cells derived from human squamous cell lung cancer were seeded in a 96 well plate at 40000 cells/100 μL/well, and were cultured overnight at 37° C. in 5% CO2. The LK2 cells were purchased from Human Science Research Resources Bank. […] The supernatant was discarded, 4% paraformaldehyde was added thereto at 100 μL/well, and the resultant was allowed to stand still at room temperature for 15 minutes. The 4% paraformaldehyde was discarded, and the resultant was washed with PBS-T. A quenching buffer (PBS-T containing 1% H2O2) was added thereto at of 100 μL/well, and the resultant was allowed to stand still at room temperature for 10 minutes. The resultant was washed with PBS-T, a blocking buffer (StartingBlocK T20 (TBS) Blocking Buffer (Thermo […], #37543)) was added thereto at 200 μL/well, and the resultant was allowed to stand still at room temperature for 1 hour. The supernatant was discarded, Acetyl-Histone H3 (Lys27) (D5E4) XP (registered trademark) Rabbit mAb (cell Signaling, #8173) diluted with a blocking buffer was added thereto at 50 μL/well, and the resultant was allowed to stand still at 4° C. overnight. The resultant was washed with PBS-T, Anti-Rabbit IgG-HRP (Cell Signaling, #7074S) diluted with a blocking buffer was added thereto at 50 μL/well, and the resultant was cultured at room temperature for 1 hour. The resultant was washed with PBS-T, SuperSignal (registered trademark) ELISA Pico Chemiluminescent Substrate (Thermo […], #37069) was added thereto at 50 μL/well, and a signal was measured using EnVision.

[4] = molecular target: CREBBP (Homo sapiens, UniProt Q92793); experiment: Histone acetyltransferase inhibitory activity against CREBBP (Test Example 1); format: biochemical; details: 125 ng/mL CREBBP, 2 μM Acetyl-CoA, 100 nM Histone H4(1-25)-GSGSK (Biotin), 28° C. for 1 hour
Method: as §1, §2, §3

[5] = test system: LK2 cells; experiment: Cell growth inhibitory activity, LK2 cells (Test Example 3); format: cell-based; details: Homo sapiens, LK-2, 72 h, cultured for 3 days, CellTiter-Glo
Method: as §4, §5, §6

EP300, sequence (Q09472 whole entry): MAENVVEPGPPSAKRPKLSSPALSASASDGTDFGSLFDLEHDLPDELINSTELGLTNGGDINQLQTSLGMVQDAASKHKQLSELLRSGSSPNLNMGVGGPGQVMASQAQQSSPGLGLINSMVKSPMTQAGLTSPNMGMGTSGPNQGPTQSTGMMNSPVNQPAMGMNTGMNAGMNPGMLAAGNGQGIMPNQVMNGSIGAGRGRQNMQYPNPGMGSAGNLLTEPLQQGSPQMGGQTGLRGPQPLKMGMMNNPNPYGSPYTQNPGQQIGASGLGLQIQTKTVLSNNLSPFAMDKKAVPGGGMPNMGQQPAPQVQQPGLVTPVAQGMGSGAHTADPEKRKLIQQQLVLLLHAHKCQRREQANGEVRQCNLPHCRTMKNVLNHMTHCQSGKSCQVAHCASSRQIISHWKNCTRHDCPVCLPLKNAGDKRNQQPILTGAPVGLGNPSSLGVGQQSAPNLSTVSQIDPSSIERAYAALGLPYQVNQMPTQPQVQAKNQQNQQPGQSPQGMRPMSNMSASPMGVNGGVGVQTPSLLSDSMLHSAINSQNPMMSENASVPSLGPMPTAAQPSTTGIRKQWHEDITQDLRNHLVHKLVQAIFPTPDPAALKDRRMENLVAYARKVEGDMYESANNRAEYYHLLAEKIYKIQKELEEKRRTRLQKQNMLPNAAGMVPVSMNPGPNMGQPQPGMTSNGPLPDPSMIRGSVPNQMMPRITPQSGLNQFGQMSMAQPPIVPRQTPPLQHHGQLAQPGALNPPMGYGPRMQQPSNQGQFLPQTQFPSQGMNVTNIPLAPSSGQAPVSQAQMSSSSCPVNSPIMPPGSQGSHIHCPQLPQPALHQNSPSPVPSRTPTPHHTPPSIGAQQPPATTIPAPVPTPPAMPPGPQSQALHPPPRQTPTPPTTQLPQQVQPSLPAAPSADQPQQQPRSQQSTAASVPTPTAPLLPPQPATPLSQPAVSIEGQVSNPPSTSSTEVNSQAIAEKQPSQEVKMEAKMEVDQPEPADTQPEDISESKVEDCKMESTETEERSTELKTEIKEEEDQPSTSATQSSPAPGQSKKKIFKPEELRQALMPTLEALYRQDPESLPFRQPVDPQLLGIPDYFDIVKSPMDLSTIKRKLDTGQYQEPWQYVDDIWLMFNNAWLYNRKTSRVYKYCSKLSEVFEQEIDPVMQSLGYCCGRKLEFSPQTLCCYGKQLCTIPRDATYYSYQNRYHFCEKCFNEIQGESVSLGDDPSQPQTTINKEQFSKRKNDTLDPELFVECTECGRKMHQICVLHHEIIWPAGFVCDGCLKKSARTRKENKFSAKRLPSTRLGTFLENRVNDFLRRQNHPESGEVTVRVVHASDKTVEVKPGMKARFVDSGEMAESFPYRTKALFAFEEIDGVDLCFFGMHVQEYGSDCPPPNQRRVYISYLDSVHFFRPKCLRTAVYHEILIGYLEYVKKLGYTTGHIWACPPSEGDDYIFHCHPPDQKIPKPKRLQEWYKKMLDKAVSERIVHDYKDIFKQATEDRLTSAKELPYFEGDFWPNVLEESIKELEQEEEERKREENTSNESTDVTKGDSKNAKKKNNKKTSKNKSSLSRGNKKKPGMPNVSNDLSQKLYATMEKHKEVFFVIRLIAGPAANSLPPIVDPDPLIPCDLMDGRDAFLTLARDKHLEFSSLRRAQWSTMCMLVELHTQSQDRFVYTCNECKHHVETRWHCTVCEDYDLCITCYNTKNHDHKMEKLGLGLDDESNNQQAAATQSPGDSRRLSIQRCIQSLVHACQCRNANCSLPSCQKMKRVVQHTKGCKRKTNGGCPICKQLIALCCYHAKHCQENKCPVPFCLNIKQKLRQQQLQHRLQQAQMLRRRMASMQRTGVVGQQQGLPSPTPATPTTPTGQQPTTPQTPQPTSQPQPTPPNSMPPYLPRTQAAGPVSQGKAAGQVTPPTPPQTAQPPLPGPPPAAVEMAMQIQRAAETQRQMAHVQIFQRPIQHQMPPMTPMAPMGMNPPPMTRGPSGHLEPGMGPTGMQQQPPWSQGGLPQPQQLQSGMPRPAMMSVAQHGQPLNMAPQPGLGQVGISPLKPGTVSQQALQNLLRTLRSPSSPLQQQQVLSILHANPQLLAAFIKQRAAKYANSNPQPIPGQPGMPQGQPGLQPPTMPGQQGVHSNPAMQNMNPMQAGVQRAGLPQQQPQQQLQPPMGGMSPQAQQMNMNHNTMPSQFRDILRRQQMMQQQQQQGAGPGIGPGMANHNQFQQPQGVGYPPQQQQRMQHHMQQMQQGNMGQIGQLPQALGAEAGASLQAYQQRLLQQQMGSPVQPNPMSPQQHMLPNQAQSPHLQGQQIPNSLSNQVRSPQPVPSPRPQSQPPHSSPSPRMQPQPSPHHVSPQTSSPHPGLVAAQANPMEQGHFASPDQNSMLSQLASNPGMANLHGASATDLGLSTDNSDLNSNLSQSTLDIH
CREBBP, sequence (Q92793 whole entry): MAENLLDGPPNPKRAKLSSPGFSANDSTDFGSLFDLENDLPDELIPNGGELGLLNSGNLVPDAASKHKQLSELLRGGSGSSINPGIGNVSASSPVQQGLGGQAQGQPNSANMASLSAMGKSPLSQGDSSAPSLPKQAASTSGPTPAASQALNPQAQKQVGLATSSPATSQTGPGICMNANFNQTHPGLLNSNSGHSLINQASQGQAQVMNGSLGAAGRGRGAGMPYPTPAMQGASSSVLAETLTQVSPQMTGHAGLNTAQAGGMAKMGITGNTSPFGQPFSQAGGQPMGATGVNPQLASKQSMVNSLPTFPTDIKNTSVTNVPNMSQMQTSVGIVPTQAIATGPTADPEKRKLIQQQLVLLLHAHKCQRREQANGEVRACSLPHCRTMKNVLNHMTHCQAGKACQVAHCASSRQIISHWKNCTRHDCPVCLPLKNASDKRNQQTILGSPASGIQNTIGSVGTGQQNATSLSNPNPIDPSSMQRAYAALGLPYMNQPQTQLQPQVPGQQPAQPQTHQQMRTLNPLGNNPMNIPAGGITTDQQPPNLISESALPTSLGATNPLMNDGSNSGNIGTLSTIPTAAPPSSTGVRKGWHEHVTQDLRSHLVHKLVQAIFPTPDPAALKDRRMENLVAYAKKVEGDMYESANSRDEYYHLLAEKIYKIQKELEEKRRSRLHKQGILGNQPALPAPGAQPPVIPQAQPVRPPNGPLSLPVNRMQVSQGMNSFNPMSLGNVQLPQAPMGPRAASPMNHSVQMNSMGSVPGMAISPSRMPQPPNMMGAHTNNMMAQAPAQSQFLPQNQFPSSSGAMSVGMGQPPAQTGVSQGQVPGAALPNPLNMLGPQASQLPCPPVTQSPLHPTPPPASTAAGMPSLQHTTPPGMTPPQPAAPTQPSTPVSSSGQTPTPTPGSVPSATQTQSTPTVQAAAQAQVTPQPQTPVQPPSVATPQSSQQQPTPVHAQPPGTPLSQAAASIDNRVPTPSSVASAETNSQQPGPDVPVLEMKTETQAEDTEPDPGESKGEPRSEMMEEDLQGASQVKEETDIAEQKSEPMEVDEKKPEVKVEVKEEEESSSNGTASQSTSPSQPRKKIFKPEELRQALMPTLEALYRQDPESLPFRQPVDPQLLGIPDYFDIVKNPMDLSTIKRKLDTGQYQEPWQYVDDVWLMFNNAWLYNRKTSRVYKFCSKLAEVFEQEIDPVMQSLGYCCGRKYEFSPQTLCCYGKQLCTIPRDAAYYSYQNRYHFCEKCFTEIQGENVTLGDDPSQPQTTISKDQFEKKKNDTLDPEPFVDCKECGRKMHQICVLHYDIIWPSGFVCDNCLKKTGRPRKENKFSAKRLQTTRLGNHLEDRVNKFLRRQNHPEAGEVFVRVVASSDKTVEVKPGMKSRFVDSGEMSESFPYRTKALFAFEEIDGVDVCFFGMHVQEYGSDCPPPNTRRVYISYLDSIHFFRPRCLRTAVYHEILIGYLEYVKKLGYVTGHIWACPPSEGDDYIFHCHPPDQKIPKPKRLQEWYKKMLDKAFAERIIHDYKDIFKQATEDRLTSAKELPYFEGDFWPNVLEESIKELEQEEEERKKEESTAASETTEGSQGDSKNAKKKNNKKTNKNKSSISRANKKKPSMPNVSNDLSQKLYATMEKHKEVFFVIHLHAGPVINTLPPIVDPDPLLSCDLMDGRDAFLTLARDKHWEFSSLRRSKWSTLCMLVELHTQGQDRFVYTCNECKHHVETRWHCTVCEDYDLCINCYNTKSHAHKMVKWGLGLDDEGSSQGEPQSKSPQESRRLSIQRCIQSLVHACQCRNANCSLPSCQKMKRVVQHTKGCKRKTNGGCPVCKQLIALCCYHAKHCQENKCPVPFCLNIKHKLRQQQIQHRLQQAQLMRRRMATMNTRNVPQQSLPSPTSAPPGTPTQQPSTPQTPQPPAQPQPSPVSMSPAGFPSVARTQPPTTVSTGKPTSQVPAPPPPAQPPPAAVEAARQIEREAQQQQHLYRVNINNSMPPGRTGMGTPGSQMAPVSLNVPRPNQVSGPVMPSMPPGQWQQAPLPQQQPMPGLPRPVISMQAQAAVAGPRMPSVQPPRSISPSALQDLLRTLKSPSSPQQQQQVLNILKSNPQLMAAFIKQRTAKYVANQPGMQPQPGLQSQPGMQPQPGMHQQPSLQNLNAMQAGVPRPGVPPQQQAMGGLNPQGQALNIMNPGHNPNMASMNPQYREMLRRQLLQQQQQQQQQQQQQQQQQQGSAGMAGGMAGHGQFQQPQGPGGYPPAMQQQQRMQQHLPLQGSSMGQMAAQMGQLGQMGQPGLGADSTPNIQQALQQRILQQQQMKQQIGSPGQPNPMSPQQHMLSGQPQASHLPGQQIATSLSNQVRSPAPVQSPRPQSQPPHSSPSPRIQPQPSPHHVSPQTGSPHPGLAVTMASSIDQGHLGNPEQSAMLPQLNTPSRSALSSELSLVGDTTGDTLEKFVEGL

Row | Compound | IC50 [1] [nM] | GI50 [2] [nM] | IC50 [3] [nM] | IC50 [4] [nM] | GI50 [5] [nM]
1 | O=C(Nc1ccc2[nH]ncc2n1)[C@H]1C[C@@H](F)CN1C(=O)C1(c2ccc(OCF)cc2)CCCC1 [Example 49] | 13 | 68.1 | 39 | 25 | 75
2 | COc1ccc(C2(C(=O)N3C[C@H](F)C[C@@H]3C(=O)Nc3ccc4[nH]ccc4n3)CCCCC2)cc1 [Example 50] | 20 | 288 | 27 | 27 | 166
3 | COc1ccc(C2(C(=O)N3C[C@H](F)C[C@@H]3C(=O)Nc3ccc4[nH]ccc4n3)CCC(F)(F)CC2)cc1 [Example 51] | 41 | 916 | 50 | 54 | 351
4 | COc1ccc(C2(C(=O)N3C[C@H](F)C[C@@H]3C(=O)Nc3ccc4cc[nH]c4n3)CCCCC2)cc1 [Example 52] | 21 | 439 | 28 | 51 | 254
5 | COc1ccc(C2(C(=O)N3CCC[C@@H]3C(=O)Nc3cccc4[nH]ncc34)CCCCCC2)cc1 [Example 54] | 126 | 4480 | 920 | 201 | 2970
6 | COc1ccc(C2(C(=O)N3C[C@H](F)C[C@@H]3C(=O)Nc3ccc4[nH]ncc4n3)CC(F)(F)C2)cc1 [Example 56, (4R)-1-{[3,3-Difluoro-1-(4-methoxyphenyl)cyclobutyl]carbonyl}-4-fluoro-N-1H-pyrazolo[4,3-b]pyridin-5-yl-D-prolinamide] | 24 | 88.3 | 20 | 64 | 98.8
7 | COc1ccc(C2(C(=O)N3C[C@H](F)C[C@@H]3C(=O)Nc3ccc4[nH]ncc4n3)CC(C)(C)C2)cc1 [Example 57] | 48 | 473 | 53 | 76 | 310
8 | CC(C)(C(=O)N1C[C@H](F)C[C@@H]1C(=O)Nc1ccc2[nH]ncc2n1)c1ccc(OC(F)(F)F)cc1 [Example 58] | 60 | 1280 | 173 | 75 | 699
9 | O=C(Nc1ccc2[nH]ncc2n1)[C@H]1C[C@@H](F)CN1C(=O)C1(c2ccc(C(=O)C(F)(F)F)cc2)CCCCC1 [Example 61, (4R)-4-Fluoro-N-1H-pyrazolo[4,3-b]pyridin-5-yl-1-({1-[4-(trifluoroacetyl)phenyl]cyclohexyl}carbonyl)-D-prolinamide] | 56 | 216 | 21 | 95 | 149
10 | COc1c(F)cc(C2(C(=O)N3C[C@H](F)C[C@@H]3C(=O)Nc3ccc4[nH]ncc4n3)CCC(F)(F)CC2)cc1F [Example 62] | 76 | 880 | 142 | 87 | 489
11 | COc1ccc(C2(C(=O)N3C[C@H](F)C[C@@H]3C(=O)Nc3ccc4[nH]ncc4n3)CCCCC2)cn1 [Example 63] | 34 | 117 | 15 | 43 | 86
12 | COc1ncc(C2(C(=O)N3C[C@H](F)C[C@@H]3C(=O)Nc3ccc4[nH]ncc4n3)CCCC2)cn1 [Example 64] | 56 | 1270 | 188 | 121 | 643
13 | COc1ccc(C2(C(=O)N3CS(=O)(=O)C[C@@H]3C(=O)Nc3ccc4[nH]ccc4n3)CCCC2)cc1 [Example 65, (4S)-3-{[1-(4-Methoxyphenyl)cyclopentyl]carbonyl}-N-(1H-pyrrolo[3,2-b]pyridin-5-yl)-1,3-thiazolidine-4-carboxamide 1,1-dioxide] | 18 | 151 | 9 | 37 | 79.2
14 | COc1ccc(C2(C(=O)N3CS(=O)(=O)C[C@@H]3C(=O)Nc3ccc4[nH]ncc4n3)CCC(F)(F)CC2)cc1 [Example 68, (4S)-3-{[4,4-Difluoro-1-(4-methoxyphenyl)cyclohexyl]carbonyl}-N-(1H-pyrazolo[4,3-b]pyridin-5-yl)-1,3-thiazolidine-4-carboxamide 1,1-dioxide] | 49 | 819 | 42 | 122 | 510
15 | COc1ccc(C2(C(=O)N(C)[C@H](CCO)C(=O)Nc3ccc4[nH]ncc4n3)CCC(F)(F)CC2)cc1 [Example 69, 4,4-Difluoro-N-[(2R)-4-hydroxy-1-oxo-1-(1H-pyrazolo[4,3-b]pyridin-5-ylamino)butan-2-yl]-1-(4-methoxyphenyl)-N-methylcyclohexanecarboxamide] | 157 | 4190 | 402 | 239 | 3120
16 | COc1ccc(C2(C(=O)N3C[C@H](F)C[C@@H]3C(=O)Nc3cc4ccccn4n3)CCCCC2)cc1 [Example 70, (4R)-4-Fluoro-1-{[1-(4-methoxyphenyl)cyclohexyl]carbonyl}-N-pyrazolo[1,5-a]pyridin-2-yl-D-prolinamide] | 60 | 1070 | 94 | 52 | 729
17 | COc1ccc(C2(C(=O)N3C[C@@H](O)C[C@@H]3C(=O)Nc3ccc4[nH]ncc4n3)CCCCC2)cc1 [Example 71, (4S)-4-Hydroxy-1-{[1-(4-methoxyphenyl)cyclohexyl]carbonyl}-N-1H-pyrazolo[4,3-b]pyridin-5-yl-D-prolinamide] | 99 | 1540 | 139 | 94 | 797
18 | COc1ccc(C2(C(=O)N(CCO)CC(=O)Nc3ccc4[nH]ncc4n3)CCC(F)(F)CC2)cc1 [Example 72, 4,4-Difluoro-N-(2-hydroxyethyl)-1-(4-methoxyphenyl)-N-[2-oxo-2-(1H-pyrazolo[4,3-b]pyridin-5-ylamino)ethyl]cyclohexanecarboxamide] | 177 | > 10000 | 1150 | 182 | > 10000
19 | COc1ccc(C2(C(=O)N3CC[C@@H](O)[C@@H]3C(=O)Nc3ccc4[nH]ccc4n3)CCC(F)(F)CC2)cc1 [Example 74, (3R)-1-{[4,4-Difluoro-1-(4-methoxyphenyl)cyclohexyl]carbonyl}-3-hydroxy-N-1H-pyrrolo[3,2-b]pyridin-5-yl-D-prolinamide] | 58 | 599 | 86 | 86 | 271
